Structures are written as SMILES. “And” between values parts separate entries of the source, which are not always exact repeats. Identical values can stand only once. Like-named read-outs stand apart in the source and are kept apart here.

Consider one molecule from publication PMC12194305, “Assessing Bioconcentration and Biotransformation of BDE-47 In Vitro: The Relevance of Bioavailable and Intracellular Concentrations” (Journal of Xenobiotics, 2025).

For one series, the system named is zebrafish. Nature of the series: IVIVE-BCF model with zebrafish default parameters. Particulars: for BCFIVIVE, ZF: ZFL cells, zebrafish parameters. In kind it is in vitro ADME. The source says:
One of the objectives was to assess whether cell lines can be used within the BCF-IVIVE model, relying on intrinsic clearance in vitro, to estimate the biotransformation rate which is subsequently extrapolated to adult fish. This approach is based on the model developed by Nichols et al. and is endorsed by the OECD guideline 319A [10] and OECD 2018a. Briefly, the log10-transformed substrate experimental concentrations in the medium (Cmed) were plotted against time, and the first-order elimination rate constant (ke, h^−1) was determined as −2.3 × slope of the log-linear decline. Black et al. indicate that a correction to the elimination rate constant (ke) should be applied when the following conditions are met: (i) abiotic losses from volatilization, calculated by comparing the recovery of negative control samples (“no cells”) at each exposure time to the initial time, fall outside the acceptable range of 80–120%, (ii) the loss process follows first order kinetics, and (iii) the ratio of ke and the volatilization rate constant (kvolat) is below 10 (ke/kvolat < 10). Then, the constant corrected for losses due to volatilization (ke,loss) was determined as −2.3 × the difference of the slopes of the sample and the loss control of the log-linear descent. The in vitro constant was then extrapolated to obtain an in vivo metabolization constant (kMET). This was done using experimental cell concentration (CHEP, 10^6 cells/mL) and default parameters derived from rainbow trout. In this study, in addition to estimating BCF with the official model parameters derived from rainbow trout (BCFIVIVE,RT), BCF was also estimated with the literature-derived parameters for zebrafish (BCFIVIVE,ZF), due to the use of ZFL cells. Finally, the BCF was estimated by the ratio of concentration in the organism to concentration in the medium, following the standardized model. The concentration in the organism was predicted using the one-compartment model given by Arnot and Gobas, which includes the rate constants describing chemical uptake (k1), loss through the gills (k2), fecal egestion (kE), growth rate (kG) and metabolization rate (kMET). Except for kMET, which is estimated experimentally in vitro, the rest are only dependent on the log KOW of the compound. On the other hand, due to the use of cell lines, the free concentration estimated was introduced instead of the total concentration in the medium (CW,TOT).

A further series relates to rainbow trout. Nature of the series: IVIVE-BCF model with rainbow trout default parameters. The note with it: k1 and k2 from experimental Ccell and Cfree. In kind it is in vitro ADME.
A further series has as its system young Psetta maxima. More on the design: method as in doi:10.1007/s11270-014-2072-0. Particulars: cited from earlier work.
The next series has as its system ZFL cells. Nature of the series: Cell viability by MTT assay. In kind it is cell-based, zebrafish. Particulars: 72 h. As to the method:
Cell viability was determined by MTT assay. A total of 10,000 cells/well were seeded in 96-well plates under culture conditions for 24 h. Then, the culture medium was replaced by contaminated medium (200 µL) with range of concentrations of BDE-47 (0.2–10 mg·L^−1). Three independent replicates with the same experimental conditions, a control group (cells without pollutant) and a blank group (only cell culture medium) were performed. After 72 h, 20 µL of MTT solution (5 mg·mL^−1) was added to provide a final concentration of 0.5 mg·mL^−1 and incubated for 4 h. Formazan produced in the MTT assay was dissolved using 100 μL DMSO, and absorbance was recorded at 595 nm. The results have been subsequently used for the design of the bioaccumulation and biotransformation experiment.

Series [1] in a line: Experimental determination of free bioavailable concentration (Cfree,exp) in exposure medium by SPME. In kind it is in vitro ADME. The note with it: for Cfree, exp: 28 °C, 72 h. As to the method:
In parallel with the exposure experiment for the evaluation of bioaccumulation and biotransformation described in the previous sections, an experiment was performed to estimate experimentally the free bioavailable concentration (Cfree,exp) in the test medium. For this purpose, an experiment was designed to simulate the test conditions, and Cfree was determined using solid-phase microextraction (SPME), following the fiber method developed by Henneberger et al..
PDMS-coated glass microfibers (30 µm thick, 13.19 µL/m coating volume) were cut into 1.5 cm pieces and cleaned in methanol for more than 24 h prior to the experiment, with the solvent replaced at least three times. The cleaned and dried fiber was placed in a glass vial with 1 mL of sample exposure medium containing 1.8 and 2.6 mg·L^−1 BDE-47. Three replicates were prepared for each condition. A portion of the initial sample was stored at −20 °C until analysis. The vials were then sealed and incubated with rotation at 28 °C for 72 h until equilibrium of BDE-47 distribution among the fiber, medium, and binding to the predominant serum protein of the culture (Bovine serum albumin, BSA) was reached. Once at equilibrium, the fibers were extracted from the vials and desorbed with 400 µL isooctane for 24 h with rotation. Finally, the extract was analyzed by GC-MS-µECD, as described in Section 2.5. The concentration of BDE-47 in the initial sample (Cmed,0h) and in the resulting media after equilibration (Cmed,eq) was determined according to the procedure described in Section 2.5, to confirm the actual mass balance.
Since this study evaluates and discusses the behavior of BDE-47 in comparison to observations from a previous study with phenanthrene, as explained in the introduction section, the experimental Cfree of phenanthrene was also determined, as it had not been measured previously. In this case, the difference in the process was that PA fibers (36 µm thick, 16.71 µL/m coating volume) were used. Samples of 10 and 20 mg·L^−1 PHE were prepared, and the fibers and samples were incubated for 24–48 h until equilibrium was reached, and desorbed with hexane for 3 h.
To determine the free concentration, concentration in the SPME fiber (Cfiber) was first estimated using Equation (1) from the concentration measured in the desorption extract (Cdes), the desorption volume (Vdes) and the coating volume of the fiber (Vfiber). This volume was estimated according to the coating volume and the length of the fiber.(1) Cfiber=Cdes·Vdes/Vfiber
Next, Cfree,exp was determined at the time before the SPME fiber was added to the system, according to Equation (2). For this, the concentration measured in the fiber equilibrated with the medium (PDMS-BDE-47-BSA or PA-PHE-BSA), the concentration measured in the initial sample (Cmed,0h), and the partition constant of the equilibrium formed between the fiber and the medium (log DPDMS/medium; BDE-47 = 5.84 [25]; log DPA/medium; PHE = 6.69 [26]) were used.(2) Cfree=Cmed,0h·Vsample/Dfiber/medium·Cmed,0h·Vsample/Cfiber−Vfiber

With `Brc1ccc(Oc2ccc(Br)cc2Br)c(Br)c1` [BDE-47, 2,2′,4,4′-tetrabromodiphenyl ether], the CLH was determined as 2.01 mL/h/kg with zebrafish (1.8 mg·L-1, ZF) and 0.333 mL/h/kg in the series with zebrafish (2.6 mg·L-1, ZF). In addition, the “CLIN VITRO, INT” value in the series with zebrafish (1.8 mg·L-1, ZF) stood at 0.0220 mL/h/106 cells; in the series on zebrafish (2.6 mg·L-1, ZF) it was 0.0037 mL/h/106 cells. The kMET in the series with zebrafish (1.8 mg·L-1, ZF) came to 0.0022 day⁻¹; in the series on zebrafish (2.6 mg·L-1, ZF), 0.0004 day⁻¹. The “BCFIVIVE, ZF” value in the series on zebrafish (Cnominal 1.8 mg·L^−1) is on record as 13,885 L·kg^−1; in the series with zebrafish (Cnominal 2.6 mg·L^−1), 14,926 L·kg^−1. Moreover, the “BCFIVIVE, RT, exp” value with rainbow trout (Cnominal 1.8 mg·L^−1) is 26,306 L·kg^−1; in the series with rainbow trout (Cnominal 2.6 mg·L^−1), 48,635 L·kg^−1. For the same molecule, the BCFk in the series on young Psetta maxima (0.001 µg·L^−1) was 33,103 L·kg^−1; in the series with young Psetta maxima (0.1 µg·L^−1) it was 15,531 L·kg^−1; in the series with young Psetta maxima (1 µg·L^−1) it was 24,125 L·kg^−1. Besides, the “LC30 after applying percentage of Cfree” value with ZFL cells (bioavailable concentration) turned out to be 0.00055 µg/mL. Further, the “concentration decreasing viability by 30% (LC30)” value in the series with ZFL cells (nominal concentration, 10% FBS) amounted to 0.45 µg/mL. Also, the “concentration decreasing viability by 50% (LC50)” value in the series with ZFL cells (nominal concentration, 10% FBS) was determined as 2.03 µg/mL. The “% Cfree, exp” value was 0.06% and 0.06 ± 0.03% in series [1] (Cnom 1.8 mg·L^−1, % of total concentration); 0.08% and 0.079 ± 0.003% in series [1] (Cnom 2.6 mg·L^−1, % of total concentration). Further, the “Cfree, exp” value in series [1] (Cnom 1.8 mg·L^−1, PDMS fiber) was “(0.4 ± 0.2) µg·L^−1”; in series [1] (Cnom 2.6 mg·L^−1, PDMS fiber), “(1.14 ± 0.04) µg·L^−1”.
